Measured values reported in patent US10561739B2, “Targeted pyrrolobenzodiazapine conjugates” (priority 2010, dated 2020).

Key:
Format in all cases: cell-based
[1] = system: TF1a cells; experiment: Free drug 48 hour Cell Titer Glo cytotoxicity, TF1a; conditions: TF-1a, Table 3, 48 hours, read-out: IC50 Summary for Free Drugs, TF1a
Procedure: (§1) Referring to the following Table 3, the activities of compounds 23, 25, are compared to that of compound 11 on 786-O, Caki-1, MCF-7, HL-60, THP-1, HEL, and TF1 cells. Cells were plated in 150 μL growth media per well into black-sided clear-bottom 96-well plates (Costar, Corning) and allowed to settle for 1 hour in the biological cabinet before placing in the incubator at 37° C., 5% CO2. The following day, 4× concentration of drug stocks were prepared, and then titrated as 10-fold serial dilutions producing 8-point dose curves and added at 50 μl per well in duplicate. Cells were then incubated for 48 hours at 37° C., 5% CO2. Cytotoxicity was measure by incubating with 100 μL Cell Titer Glo (Promega) solution for 1 hour, and then luminescence was measured on a Fusion HT plate reader (Perkin Elmer). Data was processed with Excel (Microsoft) and GraphPad (Prism) to produce dose response curves and IC50 values were generated and data collected.

[2] = system: Caki-1 cells; experiment: Free drug 48 hour Cell Titer Glo cytotoxicity, Caki-1; conditions: Homo sapiens, Table 3, 48 hours, read-out: IC50 Summary for Free Drugs, Caki-1
Procedure: as §1

[3] = system: MCF-7 cells; experiment: Free drug 48 hour Cell Titer Glo cytotoxicity, MCF-7; conditions: Homo sapiens, MCF7, Table 3, 48 hours, read-out: IC50 Summary for Free Drugs, MCF-7
Procedure: as §1

[4] = system: THP-1 cells; experiment: Free drug 48 hour Cell Titer Glo cytotoxicity, THP-1; conditions: Homo sapiens, Table 3, 48 hours, read-out: IC50 Summary for Free Drugs, THP-1
Procedure: as §1

[5] = system: HL-60 cells; experiment: Free drug 48 hour Cell Titer Glo cytotoxicity, HL-60; conditions: Homo sapiens, Table 3, 48 hours, read-out: IC50 Summary for Free Drugs, HL-60
Procedure: as §1

[6] = system: HEL cells; experiment: Free drug 48 hour Cell Titer Glo cytotoxicity, HEL; conditions: Homo sapiens, Table 3, 48 hours, read-out: IC50 Summary for Free Drugs, HEL
Procedure: as §1

[7] = system: A2780 parental cell line; experiment: A2780 assay (MTT cytotoxicity); conditions: Homo sapiens, 72 hours
Procedure: The A2780 parental cell line was grown in Dulbecco's Modified Eagles' Media (DMEM) containing ˜10% Foetal Calf Serum (FCS) and ˜1% 200 mM L-Glutamine solution and grown in Corning Cellbind 75 cm^2 flasks.
A 190 μl cell suspension was added (at 1×10^4) to each well of columns 2 to 11 of a 96 well plate (Nunc 96F flat bottom TC plate), 190 μl of media was added to each well of columns 1 and 12. The media was Dulbecco's Modified Eagles' Media (DMEM) (which included ˜10% Foetal Calf Serum (FCS) and ˜1% 200 mM L-Glutamine solution).
Plates were incubated overnight at 37° C. before addition of drug if cells were adherent, 200 μM of the test compound solutions (in 100% DMSO) were serially diluted across a 96 well plate. Each resulting point was then further diluted 1/10 into sterile distilled water (SDW).
To the cell negative blanks and compound negative control wells, 10% DMSO was added at 5% v/v. Assay plates were incubated for the following durations at 37° C. in 5% CO2 in a humidified incubator for 72 hours. Following incubation, MTT solution to a final concentration of 1.5 μM was added to each well. The plates were then incubated for a further 4 hours at 37° C. in 5% CO2 in a humidified incubator. […]
Plates were read at 540 nm absorbance using an Envision plate reader. Data was analysed using Microsoft Excel and GraphPad Prism and IC50 values obtained.

[8] = system: 786-O cells; experiment: Free drug 48 hour Cell Titer Glo cytotoxicity, 786-O; conditions: Homo sapiens, 786-0, Table 3, 48 hours, read-out: IC50 Summary for Free Drugs, 786-O
Procedure: as §1

[9] = system: Hodgkin lymphoma cell line, L428; experiment: Free drug 96-hour resazurin cytotoxicity assay, L428; conditions: Homo sapiens, L-428, Table 1, 96-hour assay, read-out: IC50 Summary for Free Drugs, L428
Procedure: (§2) The cytotoxicity of various free drug compounds was tested on a renal cell cancer cell line, 786-O, a Hodgkin lymphoma cell line, L428 and two AML cell lines, HL60 and HEL.
(§3) For a 96-hour assay, cells cultured in log-phase growth were seeded for 24 h in 96-well plates containing 150 μL RPMI 1640 supplemented with 20% FBS. Serial dilutions of test article (i.e., free drug) in cell culture media were prepared at 4× working concentration; 50 μL of each dilution was added to the 96-well plates. Following addition of test article, the cells were incubated with test articles for 4 days at 37° C. Resazurin was then added to each well to achieve a 50 μM final concentration, and the plates were incubated for an additional 4 h at 37° C. The plates were then read for the extent of dye reduction on a Fusion HT plate reader (Packard Instruments, Meridien, Conn., USA) with excitation and emission wavelengths of 530 and 590 nm, respectively. The IC50 value, determined in triplicate, is defined here as the concentration that results in a 50% reduction in cell growth relative to untreated controls.

[10] = system: AML cell line HL60; experiment: Free drug 96-hour resazurin cytotoxicity assay, HL60; conditions: Homo sapiens, HL-60, Table 1, 96-hour assay, read-out: IC50 Summary for Free Drugs, HL60
Procedure: as §2, §3

[11] = system: renal cell cancer cell line, 786-O; experiment: Free drug 96-hour resazurin cytotoxicity assay, 786-O; conditions: Homo sapiens, 786-0, Table 1, 96-hour assay, read-out: IC50 Summary for Free Drugs, 786-O
Procedure: as §2, §3

[12] = system: AML cell line HEL; experiment: Free drug 96-hour resazurin cytotoxicity assay, HEL; conditions: Table 1, 96-hour assay, read-out: IC50 Summary for Free Drugs, HEL
Procedure: as §2, §3

[13] = system: MCF-7 cells; experiment: Free drug cytotoxicity assay, MCF-7 (Table 2); conditions: Homo sapiens, MCF7; Table 2; read-out: IC50 Summary for Free Drugs, MCF-7
Procedure: as §3
Referring to the following Table 2, the activity of compounds 28, 30 and 32 is shown on L428, 786-O, HEL, HL-60 and MCF-7 cells, as well as the activity for compound 19 on MCF-7 cells.

Row | SMILES | IC50 [1] [nM] | IC50 [2] [nM] | IC50 [3] [nM] | IC50 [4] [nM] | IC50 [5] [nM] | IC50 [6] [nM] | IC50 [7] [nM] | IC50 [8] [nM] | IC50 [9] [nM] | IC50 [10] [nM] | IC50 [11] [nM] | IC50 [12] [nM] | IC50 [13] [nM]
1 | COc1ccc(C2=CN3C(=O)c4cc(OC)c(OCCCOc5cc6c(cc5OC)C(=O)N5C=C(c7ccc(N)cc7)C[C@H]5C=N6)cc4N=C[C@@H]3C2)cc1 [Compound 11, (S)-2-(4-aminophenyl)-7-methoxy-8-(3-((S)-7-methoxy-2-(4-methoxyphenyl)-5-oxo-5,11a-dihydro-1H-pyrrolo[2,1-c][1,4]benzodiazepine-8-yloxy)propoxy)-1H-pyrrolo[2,1-c][1,4]benzodiazepine-5(11aH)-one] | 1 | 0.2 | 1 | 1 | 0.01 | 0.03 | 11700 | 0.4 |  |  |  |  | 
2 | COc1ccc(C2=CN3C(=O)c4cc(OC)c(OCCCOc5cc6c(cc5OC)C(=O)N5C=C(c7cccc(N)c7)C[C@H]5C=N6)cc4N=C[C@@H]3C2)cc1 [Compound 19, (S)-2-(3-aminophenyl)-7-methoxy-8-(3-((S)-7-methoxy-2-(4-methoxyphenyl)-5-oxo-5,11a-dihydro-1H-pyrrolo[2,1-c][1,4]benzodiazepine-8-yloxy)propyloxy)-1H-pyrrolo[2,1-c][1,4]benzodiazepine-5(11aH)-one] |  |  |  |  |  |  |  |  | 1 | 0.6 | 0.5 | 0.2 | 5
